Data reported in patent US20120029041A1, “2-ARYL IMIDAZOLINE DERIVATIVES” (MSD K.K., priority 2009, published 2012).

Target: T1, human QRFP receptor (GPR103) (Homo sapiens, UniProt Q96P65)
T1 construct: expressed in transfected cells; host or cells: NFAT β-Lactamase CHO-K1 host cells (Aurora); membrane specimen
T1 sequence (Q96P65 1-431): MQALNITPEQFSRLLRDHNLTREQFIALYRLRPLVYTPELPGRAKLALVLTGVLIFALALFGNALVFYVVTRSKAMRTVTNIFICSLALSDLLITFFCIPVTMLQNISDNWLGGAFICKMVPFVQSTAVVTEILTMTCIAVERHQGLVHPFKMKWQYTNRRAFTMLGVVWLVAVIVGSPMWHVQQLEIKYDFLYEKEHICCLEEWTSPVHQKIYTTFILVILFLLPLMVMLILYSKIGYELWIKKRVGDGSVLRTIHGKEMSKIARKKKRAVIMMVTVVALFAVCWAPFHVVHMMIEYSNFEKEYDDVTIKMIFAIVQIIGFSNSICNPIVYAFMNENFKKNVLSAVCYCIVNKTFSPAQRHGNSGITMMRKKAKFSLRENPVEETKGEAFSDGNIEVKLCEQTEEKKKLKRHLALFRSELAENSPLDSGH
Test: QRFP43 Binding Inhibition Test
Settings: membrane specimen from GPR103 expressing CHO-K1 cells, [125I] QRFP43, 25° C., 1 hour; read-out: IC50 for the specific [125I] QRFP43 binding
Source text: The cDNA sequence [Accession No. NM_198179] that codes for human QRFP receptor (GPR103) was cloned into an expression vector pEF1V5-HisB (Invitrogen). The expression vector so prepared was transfected into NFAT [β-Lactamase CHO-K1 host cells (Aurora) to obtain QRFP receptor (GPR103) expressing cells, using the cationic lipid method [see Proceedings of the National Academy of Sciences of the United States of America, Vol. 84, p. 7413 (1987)].
The membrane specimen prepared from the QRFP receptor (GPR103) expressing cells was incubated at 25° C. for 1 hour with a test compound and 20,000 cpm [^125I] QRFP43 (PerkinElmer, Inc.) in an assay buffer (50 mM Tris-HCl, 1 mM EDTA, and 0.1% BSA, pH 7.4), followed by filtration using a glass filter GF/C. After washing with a 50 mM Tris-HCl (containing 2 mM EDTA, 10 mM MgCl2, and 0.04% Tween-20) buffer at pH 7.4, the radioactivity on the glass filter was determined using a gamma counter. Non-specific binding was measured in the presence of 1 μM peptide QRFP43, and 50% inhibition concentration (IC50 value) of the test compound for the specific [^125I] QRFP43 binding was determined [see Endocrinology, Vol. 131, p. 2090 (1992)].

Structure (SMILES)	IC50
Clc1ccc(C2=NCCN2C(c2ccccc2)c2ccccc2)cc1 [Example 2, 2-(4-Chlorophenyl)-1-(diphenylmethyl)-4,5-dihydro-1H-imidazole]	17 nM
Cc1ccc(C2=NCCN2C(c2ccccc2)c2ccccc2)cc1 [Example 5, 1-(Diphenylmethyl)-2-(4-methylphenyl)-4,5-dihydro-1H-imidazole]	37 nM
COc1ccc(C2=NCCN2C(c2ccccc2)c2ccccc2)cc1 [Example 6, 1-(Diphenylmethyl)-2-(4-methoxyphenyl)-4,5-dihydro-1H-imidazole]	11 nM
